Measured values reported in patent US10266564B2, “Cationic lipid cordiarimide hybrid compounds and a process for preparation thereof” (COUNCIL OF SCIENTIFIC & INDUSTRIAL RESEARCH, priority 2014, dated 2019).
“Also recorded” adds a separate entry of the source.

What was measured:
human ligase I = human ligase I (Homo sapiens, UniProt P18858); test: Ligation assay, DNA ligase I; assay type: biochemical; settings: screening, FIG. 4 and FIG. 7
Excerpt: The ligation assay was done strictly following the assay protocol described in Xi Chen et. al, Cancer Res 2008; 68(9):3169-3177. The DNA molecules 52 mer (5′-3′), 28-mer (5′-3′) and 34-mer (5′-3′) were used to construct a double stranded nicked substrate for the ligase enzyme (FIG. 4). The 34-mer oligo was labelled with 32P-AMP to form a substrate for ligase and to form a ligase-AMP intermediate. During ligation, the ligase would transfer the AMP to the nick forming a phosphodiester bond and seal the nick. The ligated DNA molecule would be larger in size and run higher up on a 7% Urea-containing denaturing acrylamide gel. If an inhibitor is added to the reaction mixture prior to the addition of ligase, this would lead to an inhibition of ligation and a corresponding loss of labelled ligated product in the gel. We would then be able to calculate the percentage of inhibition of ligation by estimating the amount of ligated product in the lane with no inhibitor and comparing it with the lanes containing different inhibitor molecules or with the same inhibitor molecule at different concentrations.

[1] = tested on: HepG2 (hepatocellular carcinoma); test: MTT assay for cell viability, HepG2; assay type: cell-based, human; settings: Homo sapiens, HepG2, 48 h
Procedure: (§1) The human cancer cell lines e.g. HepG2 (hepatocellular carcinoma, ATCC® HB-8065™), PC-3 (human prostate cancer cells, ATCC® CRL-1435™), MCF-7 (breast adenocarcinoma, ATCC® […]), and mouse embryo fibroblasts (NIH/3T3, ATCC® CRL-1658™), used in the present study were obtained from the ATCC (American Type Culture Collection, USA and maintained in RPMI 1640 (Roswell Park Memorial Institute, Merck) with 10% FBS (Merck), supplemented with 1% antibiotic and antimycotic solution (Gibco, USA) at 37° C. in a humidified incubator with 5% CO2. All stock solutions of the compounds were prepared in cell culture grade DMSO (dimethyl sulfoxide) and stored at −20° C. Compounds were diluted in culture media prior to use in experiments. Annexin V-FITC apoptosis detection kits were purchased from Calbiochem. MTT dye was procured from Sigma-Aldrich. All the flow cytometry experiments were performed using a FACScan (Becton Dickinson, Mountain View, Calif.) flow cytometer, equipped with a single 488 nm argon laser.
(§2) Cell viability was assessed by MTT assay, which is based on the reduction of MTT by mitochondrial dehydrogenases of viable cells to form a purple formazan product. Briefly, cells (5-6×10^3/well) were plated in 96 well plates. After incubating overnight, the cells were treated with […] different concentrations (100, 50, 20, 10, 5, 2.5, 1.25 μM) in triplicates with the cationic lipidated cordiarimide and intermediates for 48 h. Subsequently, 10 μL of MTT (10 mg/mL) was added to each well and incubated for 3 h. The MTT formazan formed by viable cells was dissolved in 100 μL of DMSO and shaken for 10 min. The absorbance was measured on an ELISA reader. Each test was repeated at least three times. The concentration of the compound which gives the 50% growth inhibition value corresponding to IC50, was calculated using GraphPad prism 5 software. In the present invention we have screened 26 lipidated cordiarimides and the results are described in table 1.

[2] = tested on: PC-3 (human prostate cancer cells); test: MTT assay for cell viability, PC-3; assay type: cell-based; settings: Homo sapiens, 48 h
Procedure: as §1, §2

[3] = tested on: MCF-7 (breast adenocarcinoma); test: MTT assay for cell viability, MCF-7; assay type: cell-based, human; settings: Homo sapiens, MCF7, 48 h
Procedure: as §1, §2

[4] = tested on: mouse embryo fibroblasts (NIH/3T3); test: MTT assay for cell viability, NIH/3T3; assay type: cell-based; settings: NIH3T3, 48 h
Procedure: as §1, §2

HuCCA-1 = settings: according to Kittakoop et al.; cited from earlier work
A549 = settings: according to Kittakoop et al.; cited from earlier work
MOLT-3 = settings: according to Kittakoop et al.; cited from earlier work
HepG2 = settings: according to Kittakoop et al.; cited from earlier work
HepG2 cells [5] = test: Apoptosis, annexin V/PI staining by flow cytometry; assay type: cell-based, human; settings: HepG2, 24 h
Procedure: Quantitation of apoptotic cells by annexin V staining was carried out according to the manufacturer's instructions. Briefly, cells (5×10^5 cells/well) were seeded in 6 well plates and treated with 5 μM of 8h-8k for 24 h. After incubation, cells were washed with PBS and stained with 1.25 μL of annexin V-FITC and 10 μL of media binding reagent and incubated for 20 min. After that 10 μL of PI was added and samples were analyzed using a flow cytometer. Annexin V-FITC was analyzed using excitation and emission settings of 488 nm and 535 nm (FL-1 channel); PI, 488 nm and 610 nm (FL-2 channel). Debris and clumps were gated out using forward and orthogonal light scatter. Each experiment was repeated two times independently. Results are illustrated in FIG. 1 and the percentage of Annexin-V/PI positive cells increased gradually from 20 to 70% after 24 h of treatment (FIG. 1).

[6] = tested on: HepG2, NH/3T3, PC-3, MCF-7 cell lines; test: MTT assay, summary over the cell line panel; assay type: cell-based; settings: across tested cell lines
Procedure: as §1, §2

HepG2 cells [7] = test: Cell cycle analysis, PI staining by flow cytometry; assay type: cell-based, human; settings: HepG2, 24 h, 5, 10, and 20 mM as printed
Procedure: For cell cycle distribution studies after treatment with different molar concentrations of 8i and 8k, HepG2 cells were fixed overnight in 70% ethanol, rehydrated in PBS with ribonuclease A (100 μg/ml) and Triton-X (1%) for 30 min at room temperature then PI (at 50 μg/ml) was added and incubated in the dark for 30 min and analyzed with a flow cytometer. Experiments were repeated two times independently.

caspase-3 in HepG2 cells = test: Caspase-3 colorimetric activation assay; assay type: cell-based, human; settings: HepG2, 5 and 10 μM, 24 h
Procedure: The activity of caspase-3 was determined using a caspase-3 colorimetric assay kit (Sigma Aldrich) according to the manufacturer's protocol. Briefly, HepG2 cells (1×10^6 cells/well) were treated with 5 and 10 μM of 8i and 8k for 24 h. The cells were harvested and lysed by addition of lysis buffer. Cell lysates were mixed with colorimetric substrate (Ac-DEVD-pNA) and incubated at 37° C. in the dark for 4 h. The absorbance was measured at 405 nm in an ELISA reader. Caspase-3 activity was expressed as the change of the activity compared to the control (FIG. 3).

human ligase I, sequence (P18858 whole entry): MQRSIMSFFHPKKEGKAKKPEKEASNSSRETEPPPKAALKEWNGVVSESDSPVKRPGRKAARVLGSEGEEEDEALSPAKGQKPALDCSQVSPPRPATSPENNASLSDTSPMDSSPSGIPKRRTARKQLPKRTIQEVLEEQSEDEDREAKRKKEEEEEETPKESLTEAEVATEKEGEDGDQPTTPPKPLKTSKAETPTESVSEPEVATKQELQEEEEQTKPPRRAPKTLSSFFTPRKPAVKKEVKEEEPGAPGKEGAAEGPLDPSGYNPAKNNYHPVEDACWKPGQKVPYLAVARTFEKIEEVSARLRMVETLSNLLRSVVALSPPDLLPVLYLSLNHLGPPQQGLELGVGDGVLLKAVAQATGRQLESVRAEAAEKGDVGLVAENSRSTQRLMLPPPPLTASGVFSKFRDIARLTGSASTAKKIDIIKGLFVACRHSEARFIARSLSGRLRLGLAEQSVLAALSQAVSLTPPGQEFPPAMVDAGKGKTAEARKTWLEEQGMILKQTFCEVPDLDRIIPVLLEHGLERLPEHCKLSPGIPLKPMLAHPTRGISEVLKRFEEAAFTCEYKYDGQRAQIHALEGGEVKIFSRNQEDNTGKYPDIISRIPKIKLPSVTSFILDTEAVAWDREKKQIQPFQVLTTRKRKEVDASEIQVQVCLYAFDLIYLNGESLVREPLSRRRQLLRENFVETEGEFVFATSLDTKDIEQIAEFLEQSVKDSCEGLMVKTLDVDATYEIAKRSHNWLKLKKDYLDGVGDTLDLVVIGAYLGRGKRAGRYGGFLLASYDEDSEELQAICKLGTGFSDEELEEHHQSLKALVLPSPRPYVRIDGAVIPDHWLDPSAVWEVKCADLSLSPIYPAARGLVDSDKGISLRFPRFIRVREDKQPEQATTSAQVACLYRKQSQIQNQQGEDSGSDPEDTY

Compound	DNA ligase I / ligation inhibition (in words) (human ligase I)	IC50 [1] [µM]	IC50 [2] [µM]	IC50 [3] [µM]	IC50 [4] [µM]	cytotoxicity toward HuCCA-1 (HuCCA-1)	cytotoxicity toward A549 (A549)	IC50 (MOLT-3) [µM]	cytotoxicity toward HepG2 (HepG2)	apoptosis induction (in words) (HepG2 cells [5])	antiproliferative / anticancer activity (in words) [6]	effect on cell cycle progression (HepG2 cells [7])	caspase-3 activation (caspase-3 in HepG2 cells)
CCCCCCCCCCCCCC[N+](C)(CCCCCCCCCCCCCC)CC(=O)NC1CCC(=O)N(CC(=O)c2ccccc2)C1=O (stereo not shown) [Compound 8m, {[2,6-Dioxo-1-(2-oxo-2-phenyl-ethyl)-piperidin-3-ylcarbamoyl]-methyl}Methyl-ditetradecyl-ammonium iodide]	did not elicit any DNA ligase I inhibition	> 20	> 20	> 20	> 20	–	–	–	–	–	–	–	–
CC(=O)NC1CCC(=O)N(CC(=O)c2ccccc2)C1=O (stereo not shown) [Cordiarimide A]	did not show any ligation inhibition	–	–	–	–	inactive	inactive	145	inactive	–	–	–	–
CCCCCCCCCC[N+](C)(CCCCCCCCCC)CC(=O)NC1CCC(=O)N(CC(=O)c2ccccc2)C1=O (stereo not shown) [Compound 8i, Bis-decyl-{[2,6-dioxo-1-(2-oxo-2-phenyl-ethyl)-piperidin-3-ylcarbamoyl]-methyl}-methyl-ammonium iodide]	–	3.07	4.23	5.21	2.13	–	–	–	–	induced significant amount of apoptosis	very good anticancer activity without selectivity	did not altered cell cycle progression; also recorded: did not show any impact on cell cycle progression	activated the caspase-3 in HepG2 cells dose dependently; also recorded: activated the casepase-3 in HepG2 cells dose dependently
CCCCCCCCCCCCC[N+](C)(CCCCCCCCCCCCC)CC(=O)NC1CCC(=O)N(CC(=O)c2ccccc2)C1=O (stereo not shown) [Compound 8l, {[2,6-Dioxo-1-(2-oxo-2-phenyl-ethyl)-piperidin-3-ylcarbamoyl]-methyl}-Methyl-ditridecyl-ammonium iodide]	did not elicit any DNA ligase I inhibition	> 20	> 20	> 20	> 20	–	–	–	–	–	–	–	–
CCCCCCCC[N+](C)(CCCCCCCC)CC(=O)NC1CCC(=O)N(CC(=O)c2ccccc2)C1=O (stereo not shown) [Compound 8g, {[2,6-Dioxo-1-(2-oxo-2-phenyl-ethyl)-piperidin-3-ylcarbamoyl]-methyl}-Methyl-dioctyl-ammonium iodide]	–	3.43	> 20	6.37	5.48	–	–	–	–	–	very good anticancer activity without selectivity	–	–
